Measured values published in US20230330178A1, “USE OF POLYPEPTIDE IN DRUG FOR PREVENTING AND TREATING PNEUMONIA” (priority 2020, published 2023).
Peptide text beside a SMILES is read from it.

Legend:
Escherichia coli = test: animal or person; assay type: in vivo; settings: vs model control group
Protocol: (§1) Animals in the blank administration group were not modeled, and inhaled a high-concentration polypeptide aerosol (0.48 mg/L) through nose and mouth every day. Animals in the blank control group were instilled with a 0.5 mL 0.9% sodium chloride injection through trachea. After the remaining groups were slightly anesthetized with ether, the model control group, the erythromycin group, the budesonide group, the low-dose polypeptide treatment group, and the high-dose polypeptide treatment group were instilled with a 1×10^8 CFU/mL mixed bacteria solution of Staphylococcus aureus, Streptococcus pneumoniae, and Escherichia coli through trachea, 0.5 mL/rat, respectively, and the blank control group was instilled with a 0.9% sodium chloride injection of a same volume.
(§2) A specific modeling method was as follows: a rat was anesthetized by ether inhalation and lied on an anatomical plate at an angle of 30-45°, trachea of the rat was exposed under an otoscope, a long puncture needle was connected to a 1 mL syringe and inserted into the trachea, each rat was injected with 0.5 mL of mixed bacteria, the puncture needle was pulled out after the injection, the rat was still kept at the original tilt position for about 10 min, and the bacteria solution flowed into bronchus and alveoli due to gravity to cause infection, so as to induce a rat pneumonia model.
(§3) Each group was administrated for the first time at 2 h after modeling. After the experiment begun, 7.16 mg/mL and 71.6 mg/mL peptide solutions were atomized into aerosol particles with target concentrations of 0.07 and 0.48 mg/L every day, and the animals in the low-dose peptide treatment group and the high-dose peptide treatment group (0.54 mg/kg and 3.7 mg/kg, corresponding to drug concentrations 0.07 and 0.48 mg/L respectively) inhaled the aerosol particles with corresponding concentrations through mouth and nose respectively for 7 consecutive days, 10 min/time, 3 times a day; the blank administration group (cumulative dose 22.2 mg/kg, corresponding to a drug concentration 0.48 mg/L) inhaled 0.48 mg/L peptide aerosol particles through mouth and nose every day for 7 consecutive days, 20 min/time, 3 times a day; the blank control group and the model control group inhaled a 0.9% sodium chloride solution for the same time according to the same method; the erythromycin group and the budesonide group were administrated with a 5 mg/mL erythromycin solution and a 0.05 mg/mL budesonide suspension respectively for the same time according to the same method; and body weight of each group was tested every day.
(§4) Except the blank administration group, half animals of the remaining groups were randomly selected for lung function test, gross anatomy examination, and pathological test on D4 day, and lungs of 3 animals in each group were selected for bacteria culture and counting; and on D8 day, the remaining animals were subjected to lung function test, gross anatomy examination, and pathological test, and lungs of 3 animals in each group were selected for bacteria culture and counting (the blank control group and the blank administration group were not examined).
(§5) Experimental steps of bacteria culture: except the blank administration group, six animals were randomly selected from each of the remaining groups (three animals were randomly selected from the first and last anatomies), left middle lobe lung tissues were taken, washed with 0.9% sodium chloride injection, added with double weight of 0.9% sodium chloride injection, and ground into homogenate, the homogenate was inoculated into a meat extract agar medium and cultured at 37° C. for 16 to 18 h, bacteria were isolated, and each isolated bacteria suspension was diluted to 10^−1, 10^−2, 10^−3, 10^−4, 10^−5, 10^−6, 10^−7 and 10^−8 according to 10 times gradient, namely, 9 mL normal saline plus 1 mL bacteria suspension was 10^−1, and so on. […]

Streptococcus pneumoniae = test: animal or person; assay type: in vivo; settings: vs model control group
Protocol: as §1, §2, §3, §4, §5

Staphylococcus aureus = test: animal or person; assay type: in vivo; settings: vs model control group
Protocol: as §1, §2, §3, §4, §5

SD rats = assay type: in vivo; design: MV: minute ventilation: unit not given here
Protocol: as §1, §3, §4
Experimental steps of gross anatomical examination and pathological test: the rats to be tested were anesthetized by intraperitoneal injection of 20% ethyl carbamate (dose 1000 mg/kg), and lung functions of the rats in each group were first tested with a lung function tester. Blood was collected from a ventral aorta, partial pressure of oxygen (PaO2) and partial pressure of carbon dioxide (PaCO2) in the blood of the rats were measured by using a blood gas analyzer, then left lower lobe lung tissues were taken, fixed in formalin, embedded, sectioned, and stained with HE, and pathological changes were observed under the light microscope.

[1] = Body weight of pneumonia model rats during the experiment; assay type: in vivo, SD rats; settings: FIG. 4
Protocol: as §3

[2] = D4, high-dose 3.7 mg/kg (0.48 mg/L aerosol) inhaled
[3] = D4, low-dose 0.54 mg/kg (0.07 mg/L aerosol) inhaled
[4] = D8, high-dose 3.7 mg/kg (0.48 mg/L aerosol) inhaled
[5] = D8, low-dose 0.54 mg/kg (0.07 mg/L aerosol) inhaled
[6] = D8, not modeled rats (blank administration group), cumulative dose 22.2 mg/kg (0.48 mg/L aerosol) inhaled 7 days

In the case of `CSCC[C@H](N)C(=O)NCC(=O)N[C@@H](CCCNC(=N)N)C(=O)N[C@@H](Cc1ccccc1)C(=O)N[C@@H](CCCCN)C(=O)N[C@@H](CCCNC(=N)N)C(=O)N[C@@H](Cc1ccccc1)C(=O)N[C@@H](CCCNC(=N)N)C(=O)N[C@@H](CCCCN)C(=O)N[C@@H](CCCCN)C(=O)N[C@@H](Cc1ccccc1)C(=O)N[C@@H](CCCCN)C(=O)N[C@@H](CCCCN)C(=O)N[C@@H](CC(C)C)C(=O)N[C@@H](Cc1ccccc1)C(=O)N[C@@H](CCCCN)C(=O)N[C@@H](CCCCN)C(=O)N[C@@H](CC(C)C)C(=O)N[C@@H](CO)C(=O)O` [polypeptide] (H-MGRFKRFRKKFKKLFKKLS-OH), the “Inhibition rate of escherichia coli” value (Escherichia coli; [2]) is reported as 92.16%, the “Inhibition rate of escherichia coli” value (Escherichia coli; [3]) is reported as 71.19% and the “Inhibition rate of escherichia coli” value (Escherichia coli; [4]) is reported as 96.57%. For the same molecule, the “Inhibition rate of escherichia coli” value (Escherichia coli; [5]) was 85.77%, the “Inhibition rate of streptococcus pneumoniae” value (Streptococcus pneumoniae; [2]) was 90.49% and the “Inhibition rate of streptococcus pneumoniae” value (Streptococcus pneumoniae; [3]) was 84.14%. The “Inhibition rate of streptococcus pneumoniae” value (Streptococcus pneumoniae; [4]) was 98.74%, the “Inhibition rate of streptococcus pneumoniae” value (Streptococcus pneumoniae; [5]) was 94.95% and the “Inhibition rate of staphylococcus aureus” value (Staphylococcus aureus; [2]) was 90.99%. For the same molecule, the “Inhibition rate of staphylococcus aureus” value (Staphylococcus aureus; [3]) was 80.56%, the “Inhibition rate of staphylococcus aureus” value (Staphylococcus aureus; [4]) was 97.43% and the “Inhibition rate of staphylococcus aureus” value (Staphylococcus aureus; [5]) was 96.75%. For the same molecule, the “FEV200 (forced expiratory volume)” value (SD rats; [6]) was 3.77 ± 1.07 mL, the FEV200/FVC (SD rats; [6]) was 93.81 ± 3.03% and the “FVC: forced vital capacity” value (SD rats; [6]) was 4.01 ± 1.08 mL. For the same molecule, the “MV: minute ventilation” value (SD rats; [6]) was 0.20 ± 0.04, the “PaCO2: partial pressure of carbon dioxide” value (SD rats; [6]) was 33.09 ± 8.33 mmHg and the “PaO2: partial pressure of oxygen” value (SD rats; [6]) was 82.77 ± 11.87 mmHg. The “VT: tidal volume” value (SD rats; [6]) was 1.76 ± 0.25 mL, the “arterial blood pH” value (SD rats; [6]) was 7.46 ± 0.04 and the “f: respiratory rate” value (SD rats; [6]) was 116 ± 15 time/min. For the same molecule, the Lung tissue microscopy (SD rats; D8, not modeled rats (blank administration group), cumulative dose 22.2 mg/kg aerosol inhaled) was “no obvious abnormality”, the “lung function indexes, and WBC, Neu, TNF-α, and IL-6 in alveolar lavage fluid compared with the blank control group” value (SD rats; SD rats inhaled 22.2 mg/kg polypeptide solution through nose and mouth for 7 consecutive days) was “no significant difference” and the “body weight compared with the blank control group” value (SD rats; not modeled rats (blank administration group), cumulative dose 22.2 mg/kg, FIG. 4) was “no significant difference”. The “body weight compared with the model control group” value ([1]; high-dose 3.7 mg/kg (0.48 mg/L aerosol) inhaled) was “no significant difference” and the “body weight compared with the model control group” value ([1]; low-dose 0.54 mg/kg (0.07 mg/L aerosol) inhaled) was “no significant difference”.
